Experimental data as given in patent US10294202B2, “Pyrrolidinones as herbicides” (FMC Corporation, priority 2013, dated 2019).

Experiments:
giant foxtail = experiment: Test A pre-/postemergence herbicide test; type: in vivo, Setaria faberii
In short: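 Planted in loam–sand blend; treated the same day preemergence by directed soil spray, while separately grown plants at one- to two-leaf stage got postemergence spray. Compared visually with untreated controls after approximately 10 days; 100 means complete control.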

sedge, umbrella = experiment: Test B flooded paddy test; type: in vivo, Cyperus difformis; settings: 500 g ai/ha, Flood; scale of 0 to 100 where 0 is no effect and 100 is complete control
In short: (§1)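 Scoring: visual, compared with untreated controls, 0 = no effect through 100 = complete control, taken 13 to 15 days after treatment in the greenhouse. Compounds had been added to paddy water over soil flooded 3 cm deep at the plants' 2-leaf stage.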

barnyardgrass [1] = experiment: Test B flooded paddy test; type: in vivo, Echinochloa crus-galli; settings: 500 g ai/ha, Flood; scale of 0 to 100 where 0 is no effect and 100 is complete control
In short: as §1

ryegrass, Italian = experiment: Test C pre-/postemergence herbicide test; type: in vivo, Lolium multiflorum
In short: (§2)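 Test compounds, formulated in a surfactant-containing non-phytotoxic solvent blend, are applied to seeded loam/sand soil (preemergence) and to young plants at the 1- to 4-leaf stage in peat-based medium (postemergence). Plants stay 13 to 15 days under greenhouse conditions, then are scored visually relative to controls, 0 = no effect, 100 = complete control.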

crabgrass, large = experiment: Test C pre-/postemergence herbicide test; type: in vivo, Digitaria sanguinalis
In short: as §2

johnsongrass = experiment: Test C pre-/postemergence herbicide test; type: in vivo, Sorghum halepense
In short: as §2

ragweed = experiment: Test C pre-/postemergence herbicide test; type: in vivo, Ambrosia elatior
In short: as §2

barnyardgrass [2] = experiment: Test C pre-/postemergence herbicide test; type: in vivo, Echinochloa crus-galli
In short: as §2

waterhemp = experiment: Test C pre-/postemergence herbicide test; type: in vivo, Amaranthus rudis
In short: as §2

oat, wild = experiment: Test C pre-/postemergence herbicide test; type: in vivo, Avena fatua; settings: Postemergence
In short: as §2

velvetleaf = experiment: Test C pre-/postemergence herbicide test; type: in vivo, Abutilon theophrasti
In short: as §2

[3] = Postemergence, 125 g ai/ha, visual rating on 0 to 100 scale (0 no effect, 100 complete control), approx. 10 days
[4] = Postemergence, 500 g ai/ha, 0 to 100 scale (0 no effect, 100 complete control)
[5] = Preemergence, 125 g ai/ha, 0 to 100 scale where 0 is no effect and 100 is complete control
[6] = Preemergence, 500 g ai/ha, visual rating on 0 to 100 scale (0 no effect, 100 complete control)
[7] = Postemergence, 31 g ai/ha, scale 0 to 100 (0 no effect, 100 complete control)
[8] = Postemergence, 62 g ai/ha, scale 0 (no effect) to 100 (complete control)
[9] = Postemergence, 125 g ai/ha, scale 0 to 100 (0 no effect, 100 complete control)
[10] = Postemergence, 250 g ai/ha, scale 0 to 100 (0 no effect, 100 complete control)
[11] = Preemergence, 62 g ai/ha, scale 0 to 100 (0 no effect, 100 complete control)
[12] = Preemergence, 125 g ai/ha, scale 0 to 100
[13] = Preemergence, 31 g ai/ha, scale 0 to 100, 0 is no effect and 100 is complete control
[14] = Preemergence, 125 g ai/ha, scale 0 to 100 (0 no effect, 100 complete control)
[15] = 31 g ai/ha, scale 0 to 100 (0 no effect, 100 complete control)
[16] = 62 g ai/ha, scale 0 (no effect) to 100 (complete control)
[17] = 125 g ai/ha, scale 0 to 100 (0 no effect, 100 complete control)
[18] = 250 g ai/ha, scale 0 to 100 (0 no effect, 100 complete control)

## O=C1NCC(c2cccc(C(F)(F)F)c2)C1C(=O)Nc1ccc(F)c(F)c1F (stereo not shown) [Compound 315]
Giant foxtail; [3]
  Plant response rating, Foxtail, Giant: 90
Giant foxtail; [4]
  Plant response rating, Foxtail, Giant: 90
Giant foxtail; [5]
  Plant response rating, Foxtail, Giant: 90
Giant foxtail; [6]
  Foxtail, Giant plant response rating: 90
sedge, umbrella
  Plant response rating, Sedge, Umbrella: 0
Barnyardgrass [1]
  Plant response rating, Barnyardgrass: 70
ryegrass, Italian; [7]
  Plant response rating, Ryegrass, Italian: 0
ryegrass, Italian; [8]
  Plant response rating, Ryegrass, Italian: 5
ryegrass, Italian; [9]
  Plant response rating, Ryegrass, Italian: 15
ryegrass, Italian; [10]
  Plant response rating, Ryegrass, Italian: 45
ryegrass, Italian; [11]
  Ryegrass, Italian plant response rating: 50
ryegrass, Italian; [12]
  Plant response rating, Ryegrass, Italian: 50
ryegrass, Italian; Preemergence, 250 g ai/ha
  Plant response rating (scale of 0 to 100), Ryegrass, Italian: 50
crabgrass, large; [7]
  Plant response rating, Crabgrass, Large: 55
crabgrass, large; [8]
  Plant response rating, Crabgrass, Large: 65
crabgrass, large; [9]
  Plant response rating, Crabgrass, Large: 70
crabgrass, large; [10]
  Plant response rating, Crabgrass, Large: 75
crabgrass, large; [13]
  Crabgrass, Large plant response rating: 90
crabgrass, large; [11]
  Crabgrass, Large plant response rating: 95
crabgrass, large; [12]
  Plant response rating, Crabgrass, Large: 95
crabgrass, large; Preemergence, 250 g ai/ha
  Plant response rating (scale of 0 to 100), Crabgrass, Large: 98
johnsongrass; [7]
  Plant response rating, Johnsongrass: 0
johnsongrass; [8]
  Plant response rating, Johnsongrass: 0
johnsongrass; [9]
  Plant response rating, Johnsongrass: 0
johnsongrass; [10]
  Plant response rating, Johnsongrass: 35
johnsongrass; [13]
  Johnsongrass plant response rating: 75
johnsongrass; [11]
  Johnsongrass plant response rating: 85
johnsongrass; [12]
  Plant response rating, Johnsongrass: 85
johnsongrass; Preemergence, 250 g ai/ha
  Plant response rating (scale of 0 to 100), Johnsongrass: 90
ragweed; [7]
  Plant response rating, Ragweed: 0
ragweed; [8]
  Plant response rating, Ragweed: 20
ragweed; [9]
  Plant response rating, Ragweed: 65
ragweed; [10]
  Plant response rating, Ragweed: 70
ragweed; [11]
  Ragweed plant response rating: 20
ragweed; [12]
  Plant response rating, Ragweed: 50
ragweed; Preemergence, 250 g ai/ha
  Plant response rating (scale of 0 to 100), Ragweed: 80
Barnyardgrass [2]; [7]
  Plant response rating, Barnyardgrass: 25
Barnyardgrass [2]; [8]
  Plant response rating, Barnyardgrass: 65
Barnyardgrass [2]; [9]
  Plant response rating, Barnyardgrass: 70
Barnyardgrass [2]; [10]
  Plant response rating, Barnyardgrass: 85
Barnyardgrass [2]; [13]
  Barnyardgrass plant response rating: 90
Barnyardgrass [2]; [11]
  Barnyardgrass plant response rating: 90
Barnyardgrass [2]; [14]
  Plant response rating, Barnyardgrass: 90
Barnyardgrass [2]; Preemergence, 250 g ai/ha
  Plant response rating (scale of 0 to 100; 0 is no effect, 100 is complete control), Barnyardgrass: 95
waterhemp; [7]
  Plant response rating, Waterhemp: 50
waterhemp; [8]
  Plant response rating, Waterhemp: 60
waterhemp; [9]
  Plant response rating, Waterhemp: 60
waterhemp; [10]
  Plant response rating, Waterhemp: 65
waterhemp; [11]
  Waterhemp plant response rating: 75
waterhemp; [12]
  Plant response rating, Waterhemp: 85
waterhemp; Preemergence, 250 g ai/ha
  Plant response rating (scale of 0 to 100), Waterhemp: 85
oat, wild; [15]
  Plant response rating, Oat, Wild: 0
oat, wild; [16]
  Plant response rating, Oat, Wild: 0
oat, wild; [17]
  Plant response rating, Oat, Wild: 0
oat, wild; [18]
  Plant response rating, Oat, Wild: 0
velvetleaf; [7]
  Plant response rating, Velvetleaf: 10
velvetleaf; [8]
  Plant response rating, Velvetleaf: 25
velvetleaf; [9]
  Plant response rating, Velvetleaf: 30
velvetleaf; [10]
  Plant response rating, Velvetleaf: 55
velvetleaf; [11]
  Velvetleaf plant response rating: 30
velvetleaf; [12]
  Plant response rating, Velvetleaf: 40
velvetleaf; Preemergence, 250 g ai/ha
  Plant response rating (scale of 0 to 100), Velvetleaf: 50

## O=C1NCC(c2cccc(Br)c2)C1C(=O)Nc1cccc(F)c1F (stereo not shown) [Compound 309]
Giant foxtail; [3]
  Plant response rating, Foxtail, Giant: 80
Giant foxtail; [4]
  Plant response rating, Foxtail, Giant: 90
Giant foxtail; [5]
  Plant response rating, Foxtail, Giant: 90
Giant foxtail; [6]
  Foxtail, Giant plant response rating: 90
sedge, umbrella
  Plant response rating, Sedge, Umbrella: 0
Barnyardgrass [1]
  Plant response rating, Barnyardgrass: 65
ryegrass, Italian; [7]
  Plant response rating, Ryegrass, Italian: 0
ryegrass, Italian; [8]
  Plant response rating, Ryegrass, Italian: 0
ryegrass, Italian; [9]
  Plant response rating, Ryegrass, Italian: 0
ryegrass, Italian; [10]
  Plant response rating, Ryegrass, Italian: 5
ryegrass, Italian; [11]
  Ryegrass, Italian plant response rating: 0
ryegrass, Italian; [12]
  Plant response rating, Ryegrass, Italian: 0
ryegrass, Italian; Preemergence, 250 g ai/ha
  Plant response rating (scale of 0 to 100), Ryegrass, Italian: 10
crabgrass, large; [7]
  Plant response rating, Crabgrass, Large: 0
crabgrass, large; [8]
  Plant response rating, Crabgrass, Large: 30
crabgrass, large; [9]
  Plant response rating, Crabgrass, Large: 60
crabgrass, large; [10]
  Plant response rating, Crabgrass, Large: 65
crabgrass, large; [13]
  Crabgrass, Large plant response rating: 90
crabgrass, large; [11]
  Crabgrass, Large plant response rating: 90
crabgrass, large; [12]
  Plant response rating, Crabgrass, Large: 95
crabgrass, large; Preemergence, 250 g ai/ha
  Plant response rating (scale of 0 to 100), Crabgrass, Large: 98
johnsongrass; [7]
  Plant response rating, Johnsongrass: 0
johnsongrass; [8]
  Plant response rating, Johnsongrass: 0
johnsongrass; [9]
  Plant response rating, Johnsongrass: 0
johnsongrass; [10]
  Plant response rating, Johnsongrass: 15
johnsongrass; [13]
  Johnsongrass plant response rating: 10
johnsongrass; [11]
  Johnsongrass plant response rating: 10
johnsongrass; [12]
  Plant response rating, Johnsongrass: 60
johnsongrass; Preemergence, 250 g ai/ha
  Plant response rating (scale of 0 to 100), Johnsongrass: 80
ragweed; [7]
  Plant response rating, Ragweed: 0
ragweed; [8]
  Plant response rating, Ragweed: 0
ragweed; [9]
  Plant response rating, Ragweed: 35
ragweed; [10]
  Plant response rating, Ragweed: 40
ragweed; [11]
  Ragweed plant response rating: 10
ragweed; [12]
  Plant response rating, Ragweed: 25
ragweed; Preemergence, 250 g ai/ha
  Plant response rating (scale of 0 to 100), Ragweed: 65
Barnyardgrass [2]; [7]
  Plant response rating, Barnyardgrass: 0
Barnyardgrass [2]; [8]
  Plant response rating, Barnyardgrass: 15
Barnyardgrass [2]; [9]
  Plant response rating, Barnyardgrass: 55
Barnyardgrass [2]; [10]
  Plant response rating, Barnyardgrass: 60
Barnyardgrass [2]; [13]
  Barnyardgrass plant response rating: 60
Barnyardgrass [2]; [11]
  Barnyardgrass plant response rating: 90
Barnyardgrass [2]; [14]
  Plant response rating, Barnyardgrass: 90
Barnyardgrass [2]; Preemergence, 250 g ai/ha
  Plant response rating (scale of 0 to 100; 0 is no effect, 100 is complete control), Barnyardgrass: 95
waterhemp; [7]
  Plant response rating, Waterhemp: 0
waterhemp; [8]
  Plant response rating, Waterhemp: 5
waterhemp; [9]
  Plant response rating, Waterhemp: 10
waterhemp; [10]
  Plant response rating, Waterhemp: 10
waterhemp; [11]
  Waterhemp plant response rating: 0
waterhemp; [12]
  Plant response rating, Waterhemp: 30
waterhemp; Preemergence, 250 g ai/ha
  Plant response rating (scale of 0 to 100), Waterhemp: 40
oat, wild; [15]
  Plant response rating, Oat, Wild: 0
oat, wild; [16]
  Plant response rating, Oat, Wild: 0
oat, wild; [17]
  Plant response rating, Oat, Wild: 0
oat, wild; [18]
  Plant response rating, Oat, Wild: 0
velvetleaf; [7]
  Plant response rating, Velvetleaf: 5
velvetleaf; [8]
  Plant response rating, Velvetleaf: 5
velvetleaf; [9]
  Plant response rating, Velvetleaf: 5
velvetleaf; [10]
  Plant response rating, Velvetleaf: 15
velvetleaf; [11]
  Velvetleaf plant response rating: 0
velvetleaf; [12]
  Plant response rating, Velvetleaf: 0
velvetleaf; Preemergence, 250 g ai/ha
  Plant response rating (scale of 0 to 100), Velvetleaf: 15
